Like-named read-outs stand apart in the source and are kept apart here.
System: genotype 1b (Con-1) HCV replicon
Experiment: HCV Replicon Luciferase Assay
Assay type: cell-based
Conditions: Hepatitis C virus, 72 h, Huh-7 genotype 1b replicon, Renilla luciferase, 3 days incubation
Method: The cell lines used to evaluate compounds consist of a human hepatocyte derived cell line (Huh-7) that constitutively expresses a genotype 1b (Con-1) HCV replicon or a genotype 1b (Con-1) HCV replicon with an asparagine replacing the cysteine at amino acid 316, or a genotype 2a (JFH-1) replicon, containing a Renilla luciferase reporter gene. These cells were maintained in Dulbecco's modified Eagle medium (DMEM) containing 10% FBS, 100 U/mL penicillin/streptomycin and 1.0 mg/mL G418.
To evaluate compound efficacy, titrated compounds were transferred to sterile 384-well tissue culture treated plates, and the plates were seeded with HCV replicon cells (50 μL at a density of 2.4×10^3 cells/well) in DMEM containing 4% FBS (final DMSO concentration at 0.5%). After 3 days incubation at 37° C., cells were analyzed for Renilla Luciferase activity using the EnduRen substrate (Promega cat #E6485) according to the manufacturer's directions. Briefly, the EnduRen substrate was diluted in DMEM and then added to the plates to a final concentration of 7.5 μM. The plates were incubated for at least 1 h at 37° C. then read on a Viewlux Imager (PerkinElmer) using a luminescence program. The 50% effective concentration (EC50) was calculated using the four-parameter logistic Formula noted above.
Compound EC50 data is expressed as A: <100 nM; B=100-1000 nM; C>1000 nM).

Compound | EC50 (read-out: EC50 1b (class)) [µM] | EC50 (read-out: EC50 (uM) 1b) [µM]
CNC(=O)c1c(-c2ccc(F)cc2)oc2cc(N(CCCF)S(C)(=O)=O)c(-c3cccc(C(=O)NC(C4CC4)C4CC4)c3)cc12 [Compound 4025] | < 0.1 | –
CNC(=O)c1c(-c2ccc(F)cc2)oc2cc(N(CC#N)S(C)(=O)=O)c(-c3cccc(C(=O)OC)c3)cc12 [Compound 1001] | < 0.1 | 0.0578
CCC1CCCN1C(=O)c1cccc(-c2cc3c(C(=O)NC)c(-c4ccc(F)cc4)oc3cc2N(CCF)S(C)(=O)=O)c1 (centres unmarked) [Compound 3027] | < 0.1 | –
CNC(=O)c1c(-c2ccc(F)cc2)oc2cc(N(CCC(F)(F)F)S(C)(=O)=O)c(-c3cccc(C(=O)NC(CF)(CF)CF)c3)cc12 [Compound 9005] | < 0.1 | –
CNC(=O)c1c(-c2ccc(F)cc2)oc2cc(N(CCF)S(C)(=O)=O)c(-c3cccc(C(=O)N4CCN(C(=O)OC(C)(C)C)CC4(C)C)c3)cc12 [Compound 3044] | < 0.1 | –
CNC(=O)c1c(-c2ccc(F)cc2)oc2cc(N(CCCF)S(C)(=O)=O)c(-c3cccc(C(=O)NC4(C)CCC4)c3)cc12 [Compound 4022] | < 0.1 | 0.0077
CNC(=O)c1c(-c2ccc(F)cc2)oc2cc(N(CCF)S(C)(=O)=O)c(-c3cccc(C(=O)N[C@H](C)C(F)(F)F)c3)cc12 [Compound 3021] | < 0.1 | –
CNC(=O)c1c(-c2ccc(F)cc2)oc2cc(N(CCCF)S(C)(=O)=O)c(-c3cccc(C(=O)O)c3)cc12 [Compound 4002] | > 1 | –
CNC(=O)c1c(-c2ccc(F)cc2)oc2cc(N(CCF)S(C)(=O)=O)c(-c3cccc(C(=O)N4CCN(c5cccnc5)CC4)c3)cc12 [Compound 3032] | > 1 | 2.64
CNC(=O)c1c(-c2ccc(F)cc2)oc2cc(N(CC(F)F)S(C)(=O)=O)c(-c3cccc(C(=O)OC)c3)cc12 [Compound 7001] | < 0.1 | –
CNC(=O)c1c(-c2ccc(F)cc2)oc2cc(N(CCCF)S(C)(=O)=O)c(-c3cccc(C(=O)NCC(F)F)c3)cc12 [Compound 4020] | < 0.1 | –
CNC(=O)c1c(-c2ccc(F)cc2)oc2cc(N(CCC(F)(F)F)S(C)(=O)=O)c(-c3cccc(C(=O)NCC(F)(F)C(F)(F)F)c3)cc12 [Compound 9003] | < 0.1 | 0.0076
CNC(=O)c1c(-c2ccc(F)cc2)oc2cc(N(C(F)F)S(C)(=O)=O)c(-c3cccc(C(=O)O)c3)cc12 [Compound 6002] | > 1 | > 10
CNC(=O)c1c(-c2ccc(F)cc2)oc2cc(N(CCCF)S(C)(=O)=O)c(-c3cccc(C(=O)NC4(C#N)CC4)c3)cc12 [Compound 4014] | < 0.1 | –
[2H]C([2H])([2H])C(NC(=O)c1cccc(-c2cc3c(C(=O)NC)c(-c4ccc(F)cc4)oc3cc2N(CC2CC2)S(C)(=O)=O)c1)(C([2H])([2H])[2H])C([2H])([2H])[2H] [Compound 2006] | < 0.1 | –
CNC(=O)c1c(-c2ccc(F)cc2)oc2cc(N(CCCF)S(C)(=O)=O)c(-c3cccc(C(=O)NC(C)(C)C#N)c3)cc12 [Compound 4024] | < 0.1 | –
CNC(=O)c1c(-c2ccc(F)cc2)oc2cc(N(CCF)S(C)(=O)=O)c(-c3cccc(C(=O)N4CCCC4C)c3)cc12 (centres unmarked) [Compound 3024] | < 0.1 | –
CNC(=O)c1c(-c2ccc(F)cc2)oc2cc(N(CCF)S(C)(=O)=O)c(-c3cccc(C(=O)NC(CF)(CF)CF)c3)cc12 [Compound 3004] | < 0.1 | –
C#CC(C)(C)NC(=O)c1cccc(-c2cc3c(C(=O)NC)c(-c4ccc(F)cc4)oc3cc2N(CCCF)S(C)(=O)=O)c1 [Compound 4012] | < 0.1 | 0.008
CNC(=O)c1c(-c2ccc(F)cc2)oc2cc(N(CCCF)S(C)(=O)=O)c(-c3cccc(C(=O)NCC(C)(C)C)c3)cc12 [Compound 4009] | < 0.1 | –
CNC(=O)c1c(-c2ccc(F)cc2)oc2cc(N(CCF)S(C)(=O)=O)c(-c3cccc(C(=O)N4CC[C@@H](NC(=O)OC(C)(C)C)C4)c3)cc12 [Compound 3038] | < 0.1 | –
CNC(=O)c1c(-c2ccc(F)cc2)oc2cc(NCCCF)c(-c3cccc(C(=O)NC(CF)(CF)CF)c3)cc12 [Compound 5006] | < 0.1 | 0.0094
CNC(=O)c1c(-c2ccc(F)cc2)oc2cc(N(CCF)S(C)(=O)=O)c(-c3cccc(C(=O)N4[C@H](C)CC[C@H]4C)c3)cc12 [Compound 3023] | < 0.1 | –
CNC(=O)c1c(-c2ccc(F)cc2)oc2cc(N(CCCF)S(C)(=O)=O)c(-c3cccc(C(=O)NC(C)(C)C(C)(C)C)c3)cc12 [Compound 4026] | < 0.1 | –
CNC(=O)c1c(-c2ccc(F)cc2)oc2cc(N(CCCF)S(C)(=O)=O)c(-c3cccc(C(=O)NCC(F)(F)C(F)(F)F)c3)cc12 [Compound 4007] | < 0.1 | 0.0053

Compound | EC50 (read-out: EC50 1b (class)) [µM] | EC50 (read-out: EC50 (uM) 1b) [µM]
CNC(=O)c1c(-c2ccc(F)cc2)oc2cc(N(CCF)S(C)(=O)=O)c(-c3cccc(C(=O)N4CCC(NC(C)=O)C4)c3)cc12 (centres unmarked) [Compound 3036] | > 1 | –
CNC(=O)c1c(-c2ccc(F)cc2)oc2cc(N(CC3CC3)S(C)(=O)=O)c(-c3cccc(C(=O)NC(C)(C)C(F)(F)F)c3)cc12 [Compound 2003] | < 0.1 | –
CNC(=O)c1c(-c2ccc(F)cc2)oc2cc(N(CCCF)S(C)(=O)=O)c(-c3cccc(C(=O)NCC(C)(C)CO)c3)cc12 [Compound 4017] | < 0.1 | –
CNC(=O)c1c(-c2ccc(F)cc2)oc2cc(N(CCF)S(C)(=O)=O)c(-c3cccc(C(=O)NC(C)(C)C(F)(F)F)c3)cc12 [Compound 3003] | < 0.1 | –
CC[C@@H](NC(=O)c1cccc(-c2cc3c(C(=O)NC)c(-c4ccc(F)cc4)oc3cc2N(CCF)S(C)(=O)=O)c1)C1CC1 [Compound 3007] | < 0.1 | 0.0057
CNC(=O)c1c(-c2ccc(F)cc2)oc2cc(N(CCCF)S(C)(=O)=O)c(-c3cccc(C(=O)NC(C)(C)C(F)(F)F)c3)cc12 [Compound 4005] | < 0.1 | –
CNC(=O)c1c(-c2ccc(F)cc2)oc2cc(N(CCF)S(C)(=O)=O)c(-c3cccc(C(=O)N4CCC[C@H]4C(=O)OC)c3)cc12 [Compound 3041] | 0.1 to 1 | –
CNC(=O)c1c(-c2ccc(F)cc2)oc2cc(N(CCCF)S(C)(=O)=O)c(-c3cccc(C(=O)NC(C)(C)CCO)c3)cc12 [Compound 4027] | < 0.1 | –
CNC(=O)c1c(-c2ccc(F)cc2)oc2cc(NCCCF)c(-c3cccc(C(=O)NC(C)(C)C(F)(F)F)c3)cc12 [Compound 5005] | < 0.1 | –
CNC(=O)c1c(-c2ccc(F)cc2)oc2cc(N(CC3CC3)S(C)(=O)=O)c(-c3cccc(C(=O)NC(CF)(CF)CF)c3)cc12 [Compound 2004] | < 0.1 | –
CNC(=O)c1c(-c2ccc(F)cc2)oc2cc(N(CCF)S(C)(=O)=O)c(-c3cccc(C(=O)N4CCC(O)C4)c3)cc12 (centres unmarked) [Compound 3039] | > 1 | 1.61
CNC(=O)c1c(-c2ccc(F)cc2)oc2cc(N(CCCF)S(C)(=O)=O)c(-c3cccc(C(=O)NC4(C)CC4)c3)cc12 [Compound 4016] | < 0.1 | –
CNC(=O)c1c(-c2ccc(F)cc2)oc2cc(N(CCF)S(C)(=O)=O)c(-c3cccc(C(=O)N4CCN(CC(C)C)CC4)c3)cc12 [Compound 3033] | < 0.1 | –
CNC(=O)c1c(-c2ccc(F)cc2)oc2cc(N(CC3CC3)S(C)(=O)=O)c(-c3cccc(C(=O)NC(C)(C)C#N)c3)cc12 [Compound 2005] | < 0.1 | 0.0147
CNC(=O)c1c(-c2ccc(F)cc2)oc2cc(N(CC=C(F)F)S(C)(=O)=O)c(-c3cccc(C(=O)OC)c3)cc12 [Compound 8001] | < 0.1 | –
CNC(=O)c1c(-c2ccc(F)cc2)oc2cc(N(C(F)F)S(C)(=O)=O)c(-c3cccc(C(=O)NC(C)(C)C(F)(F)F)c3)cc12 [Compound 6003] | < 0.1 | 0.0095
CNC(=O)c1c(-c2ccc(F)cc2)oc2cc(NCCCF)c(-c3cccc(C(=O)NC(C)(C)C#N)c3)cc12 [Compound 5003] | < 0.1 | –
CNC(=O)c1c(-c2ccc(F)cc2)oc2cc(N(CCF)S(C)(=O)=O)c(-c3cccc(C(=O)NCC(F)(F)C(F)(F)F)c3)cc12 [Compound 3012] | < 0.1 | 0.0032
CNC(=O)c1c(-c2ccc(F)cc2)oc2cc(N(C(F)F)S(C)(=O)=O)c(-c3cccc(C(=O)NC(C)(C)C#N)c3)cc12 [Compound 6004] | < 0.1 | –
CNC(=O)c1c(-c2ccc(F)cc2)oc2cc(N(CCC(F)(F)F)S(C)(=O)=O)c(-c3cccc(C(=O)NC(C)(C)C(F)(F)F)c3)cc12 [Compound 9004] | < 0.1 | 0.0106
CNC(=O)c1c(-c2ccc(F)cc2)oc2cc(N(CCCF)S(C)(=O)=O)c(-c3cccc(C(=O)NCC(C)C)c3)cc12 [Compound 4015] | < 0.1 | 0.0075
CNC(=O)c1c(-c2ccc(F)cc2)oc2cc(N(CCCF)S(C)(=O)=O)c(-c3cccc(C(=O)NC(C)(C)CO)c3)cc12 [Compound 4018] | < 0.1 | –
CNC(=O)c1c(-c2ccc(F)cc2)oc2cc(N(CCF)S(C)(=O)=O)c(-c3cccc(C(=O)N[C@@H](C)C4CC4)c3)cc12 [Compound 3009] | < 0.1 | –
CNC(=O)c1c(-c2ccc(F)cc2)oc2cc(N(C(F)F)S(C)(=O)=O)c(-c3cccc(C(=O)OC)c3)cc12 [Compound 6001] | < 0.1 | –
CNC(=O)c1c(-c2ccc(F)cc2)oc2cc(N(CCC(F)(F)F)S(C)(=O)=O)c(-c3cccc(C(=O)NC(C)(C)C#N)c3)cc12 [Compound 9006] | < 0.1 | –

Source: US10125111B2, “Benzofuran compounds for the treatment of hepatitis C” (BRISTOL-MYERS SQUIBB COMPANY, priority 2015, dated 2018)
